Laboratory results published in patent publication EP0591583B1, “Benzo (f) quinolinones as 5-alpha-reductase inhibitors” (ELI LILLY AND COMPANY, priority 1992, dated 1994).

Molecular target: T1, 5α-reductase (Homo sapiens, UniProt P18405)
T1 construct: host or cells: Hs68 human genital skin fibroblasts
T1 sequence (P18405 1-259): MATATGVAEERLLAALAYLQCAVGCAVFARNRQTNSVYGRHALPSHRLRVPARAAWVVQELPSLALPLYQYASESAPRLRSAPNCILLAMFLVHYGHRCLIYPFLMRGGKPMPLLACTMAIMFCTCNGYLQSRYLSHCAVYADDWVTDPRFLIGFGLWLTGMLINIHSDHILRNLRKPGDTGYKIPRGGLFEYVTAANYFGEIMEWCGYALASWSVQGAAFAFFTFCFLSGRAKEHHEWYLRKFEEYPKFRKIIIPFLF
Assay: 5α-Reductase activity in Hs68 human genital skin fibroblasts (conversion of labeled testosterone, TLC analysis)
Assay type: cell-based
Conditions: Hs68, test compound 0.316 µM; Hs68 cells; substrate testosterone 12 µM; incubated four hours
Description: Cell Culture: 5α-Reductase activity was measured using Hs68 human genital skin fibroblasts which were originally purchased from the American Type Culture Collection (Rockville, MD). The cells were grown in Dulbecco's Modified Eagle's Medium (DMEM) plus 10% stripped fetal bovine serum which was supplemented with amphotericin B ([…]) and gentamicin ([…]) (GIBCO, Grand Island, NY). The serum was stripped of endogenous steroids by incubation with dextran-coated charcoal prior to its addition to the media. The cells were maintained at 37°C in an atmosphere of 95% air, 5% CO2 and were passaged every 7-10 days by exposure to a trypsin-EDTA solution (0.025% trypsin, 0.265 mM EDTA). Prior to the assay the Hs68 cells were harvested and plated in Falcon 6-well plates (Becton Dickinson Labware, Lincoln Park, NJ) at a density of 6 x 10^4 cells per well. The cells were allowed to grow for 4-5 days or until they reached approximately 80% confluence.
Assay Method I: The substrate was prepared by dissolving unlabeled testosterone (Sigma Chemical Co., St. Louis, MO) in absolute ethanol followed by the addition of [7-^3H (N)]-testosterone (23.3 Ci/mmole, New England Nuclear, Boston, MA). The steroid solution was taken to dryness under a stream of nitrogen and then reconstituted in media.
Assay Method II: The substrate used for this method was [^14C]-testosterone (50 mCi/mmol) (New England Nuclear, Boston, MA). An aliquot of the substrate was taken to dryness under a stream of nitrogen. After the addition of 30 µl of ethanol, the testosterone was dissolved in an appropriate volume of media.
Sample Preparation: The test compounds were brought up in absolute ethanol in order to achieve the desired concentration. Subsequent dilutions of the test compounds with media were performed by the Biomek 1000 Automated Laboratory Workstation (Beckman Instruments, Palo Alto, CA). The existing media in the sample wells was aspirated and replaced with fresh media. Test compound was then added to the wells followed by the addition of 0.5 ml of substrate. The volume of the incubation mixture was maintained at 2.0 ml. The final substrate concentration was 12 µM. The concentration of the test compounds ranged from 0.001-150 µM. An additional three wells (background) containing media and substrate but no cells were also included to account for the non-enzymatic metabolism of the substrate. The plates were returned to the incubator and incubated for four hours.
At the end of the incubation the media was collected and transferred to an extraction tube containing 5 ml of toluene-ethanol (9:1), to which has been added 20-250 µg each of unlabeled carrier steroids (estriol, estradiol, estrone, 5α-androstan-3α,17β-diol, 5α-androstan-3β,17β-diol, 4-androstene-3,17-dione, 5α-androstan-3,17-dione, testosterone, and 5α-dihydrotestosterone) (Steraloids, Inc., Wilton, NH). In the case of Assay Method I the extraction tube also contained 1,000 and 10,000 dpm of [4-^14C]-dihydrotestosterone (50-60 mCi/mmol) and [4-^14C]-testosterone (50 mCi/mmol) (New England Nuclear, Boston, MA), respectively. The [^14C]-steroids were included as recovery standards to quantify procedural losses. A small amount of NaCl was also added to the extraction tubes to prevent foaming. The samples were vortexed for approximately 30 seconds and then centrifuged for 10 minutes at 500 x g. The organic phase was collected and the samples taken to dryness, redissolved in dichloromethane-methanol (9:1) and were analyzed by thin layer chromatography using one of the methods described below.
Chromatography Method I (two-dimensional): The extracted samples were appled to silica gel 60F254, 0.25 mm thick, thin layer chromatography plates (EM Science, Cincinnati, OH). The plates were developed in the first dimension with a solvent system containing dichloromethane-ethyl acetate-methanol-acetic acid (160:38:1.5:0.5, Mallinckrodt Inc., Paris, KY).

Structure (SMILES) | inhibition at 0.316 µM [%]
CN1C(=O)CC[C@@H]2c3ccc(Cl)cc3CC[C@H]21 [Example 64, (-)-(4aR)-(10bR)-8-chloro-4-methyl-1,2,3,4,4a,5,6, lOb-octahydrobenzo[f]quinolin-3-one] | 91.5

Same assay, conditions: Hs68, test compound 0.316 µM; Hs68 cells; substrate testosterone 12 µM; incubated four hours; read-out: % Inhibition

Structure (SMILES) | inhibition at 0.316 µM [%]
CN1C(=O)CC[C@@H]2c3cc([N+](=O)[O-])ccc3CC[C@H]21 (racemic) [Example 47, trans-dl-9-nitro-4-methyl-1,2,3,4,4a,5,6,10b-octahydrobenzo[f]quinolin-3-one] | 49.7
CN1C(=O)CC[C@@H]2c3cc(N)ccc3CC[C@H]21 (racemic) [Example 48, trans-dl-9-amino-4-methyl-1,2,3,4,4a,5,6,10b-octahydrobenzo[f]quinolin-3-one] | 4.36
CN1C(=O)CC[C@@H]2c3cc(Cl)ccc3CC[C@H]21 (racemic) [Example 49, trans-dl-9-chloro-4-methyl-1,2,3,4,4a,5,6,10b-octahydrobenzo[f]guinolin-3-one] | 65.7
O=C1C=C[C@@H]2c3ccc(Cl)cc3CC[C@H]2N1 (racemic) [Example 50A, trans-dl-8-chloro-3,4,4a,5,6,10b-hexahydrobenzo[f]quinolin-3-one] | 83.3
O=C1CC=C2c3ccc(Cl)cc3CCC2N1 (racemic) [Example 50B, dl-8-chloro-2,3,4,4a,5,6-hexahydrobenzo[f]quinolin-3-one] | 84
CN1C(=O)CC=C2c3ccc(Cl)cc3CCC21 (racemic) [Example 53, dl-8-chloro-4-methyl-2,3,4,4a,5,6-hexahydrobenzo[f]quinolin-3-one] | 74.8
C[C@@H]1C[C@@H]2c3ccc(Cl)cc3C=C[C@H]2N(C)C1=O (racemic) [Example 54, trans-dl-8-chloro-2-a-methyl-4-methyl-1,2,3,4,4a,10b-hexahydrobenzo[f]quinolin-3-one] | 73.8
CN1C(=O)CC[C@@H]2c3ccc(CCC(=O)NC(C)(C)C)cc3CC[C@H]21 (racemic) [Example 55, trans-dl-8-t-butylaminocarbonylethanediyl-4-methyl-1,2,3,4,4a,5,6,10b-octahydrobenzo[f]quinolin-3-one] | 17.3
CN1C(=O)CC[C@@H]2c3ccc(-c4ccccc4)cc3CC[C@H]21 (racemic) [Example 56, trans-dl-8-phenyl-4-methyl-1,2,3,4,4a,5,6,10b-octahydrobenzo[f]quinolin-3-one] | 74.8
C=Cc1ccc2c(c1)CC[C@@H]1[C@@H]2CCC(=O)N1C (racemic) [Example 57, trans-dl-8-vinyl-4-methyl-1,2,3,4,4a,5,6,10b-octahydrobenzo[f]quinolin-3-one] | 66.6
CCOC(=O)c1ccc2c(c1)CC[C@@H]1[C@@H]2CCC(=O)N1C (racemic) [Example 58, trans-dl-8-ethoxycarbonyl-4-methyl-1,2,3,4,4a,5,6,10b-octahydrobenzo[f]quinolin-3-one] | 65.7
CCN1C(=O)CC[C@@]2(C)c3ccccc3CC[C@H]12 (relative stereo) [Example 42, trans-4-ethyl-10b-methyl-1,2,3,4,4a,5,6,10b-octahydrobenzo[f]quinolin-3-one] | 10.9
CCCCN1C(=O)CC[C@@]2(C)c3ccccc3CC[C@H]12 (relative stereo) [Example 43, trans-4-n-butyl-10b-methyl-1,2,3,4,4a,5,6,10b-octahydrobenzo[f]quinolin-3-one] | 11.9
CN1C(=O)CC[C@]2(C)c3ccc(Cl)cc3CC[C@@H]12 [Example 59, (R) (+)-trans-4-methyl-8-chloro-10b-methyl-1,2,3,4,4a,5,6,10b-octahydrobenzo[f]quinolin-3-one] | 71.9
C[C@]12C=CC(=O)N[C@@H]1CCc1cc(Cl)ccc12 [Example 61, (R) (+)-trans-8-chloro-10b-methyl-3,4,4a,5,6,10b-hexahydrobenzo[f]quinolin-3-one] | 61.5
CN1C(=O)CC[C@H]2c3ccc(Cl)cc3CC[C@@H]21 [Example 65, (+)-(4aS)-(10bS)-8-chloro-4-(methyl)-1,2,3,4,4a,5,6,10b-octahydrobenzo[f]quinolin-3-one] | 95.6

Same assay, conditions: Hs68, test compound 1.00 µM; Hs68 cells; substrate testosterone 12 µM; incubated four hours

Structure (SMILES) | inhibition at 1 µM [%]
CN1C(=O)CCC2(C)c3ccc(Cl)cc3CCC12 (racemic) [Example 34, trans-dl-8-chloro-4,10b-di-methyl-1,2,3,4,4a,5,6,10b-octahydrobenzo[f]-quinolin-3-one] | 94.2

Same assay, conditions: Hs68, test compound 1.00 µM; Hs68 cells; substrate testosterone 12 µM; incubated four hours; read-out: % Inhibition

Structure (SMILES) | inhibition at 1 µM [%]
CN1C(=O)CCC2(C)c3ccc(F)cc3CCC12 (racemic) [Example 32, trans-dl-8-fluoro-4,10b-dimethyl-1,2,3,4,4a,5,6,10b-octahydrobenzo[f]quinolin-3-one] | 81.6
C[C@]12CCC(=O)N[C@@H]1CCc1cc(Cl)ccc12 (racemic) [Example 38, trans-dl-8-chloro-10b-methyl-1,2,3,4,4a,5,6,10b-octahydrobenzo[f]quinolin-3-one] | 34
CN1C(=O)C=C[C@@H]2c3ccc(Br)cc3CC[C@H]21 (racemic) [Example 51, trans-dl-8-bromo-4-methyl-3,4,4a,5,6,10b-hexahydrobenzo[f]quinolin-3-one] | 95.1
CN1C(=O)C=C[C@@H]2c3ccc(Cl)cc3CC[C@H]21 (racemic) [Example 52, trans-dl-8-chloro-4-methyl-3,4,4a,5,6,10b-hexahydrobenzo[f]quinolin-3-one] | 71.8

Same assay, conditions: Hs68, test compound 3.16 µM; Hs68 cells; substrate testosterone 12 µM; incubated four hours

Structure (SMILES) | inhibition at 3.16 µM [%]
CN1C(=O)CC[C@@]2(C)c3ccccc3CC[C@H]12 (stereo in doubt) [Example 45, trans-4-methyl-10b-methyl-1,2,3,4,4a,5,6,10b-octahydrobenzo[f]quinolin-3-one] | 72.2

Same assay, conditions: Hs68, test compound 150.00 µM; Hs68 cells; substrate testosterone 12 µM; incubated four hours

Structure (SMILES) | inhibition at 150 µM [%]
C[C@]12CCC(=O)N[C@@H]1CCc1ccccc12 (racemic) [Example 36, trans-dl-10b-methyl-1,2,3,4,4a,5,6,10b-octahydrobenzo[f]quinolin-3-one] | 43.9

Same assay, conditions: test compound 0.316 µM; Hs68 cells; substrate testosterone 12 µM; incubated four hours; read-out: % Inhibition

Structure (SMILES) | inhibition at 0.316 µM [%]
COc1ccc(CN2C(=O)CC[C@]3(C)c4ccc(Cl)cc4CC[C@@H]23)cc1 [Example 44] | 5.7

Same assay, conditions: test compound 1.00 µM; Hs68 cells; substrate testosterone 12 µM; incubated four hours; read-out: % Inhibition

Structure (SMILES) | inhibition at 1 µM [%]
CN1C(=O)CC[C@]2(C)c3ccccc3CC[C@@H]12 (stereo in doubt) [Example 37, trans-dl-4,10b-dimethyl-1,2,3,4,4a,5,6,10b-octahydrobenzo[f]quinolin-3-one] | 40

Same assay, conditions: test compound 15.00 µM; Hs68 cells; substrate testosterone 12 µM; incubated four hours

Structure (SMILES) | inhibition at 15 µM [%]
O=C1CC[C@@H]2c3cc([N+](=O)[O-])ccc3CC[C@H]2N1 (racemic) [Example 46, trans-dl-9-nitro-1,2,3,4,4a,5,6,10b-octahydrobenzo[f]quinolin-3-one] | 69.9
